Results reported in the supplement of paper PMC10307832.

Tests used:
Test in all cases: relative viability (nuclei count vs DMSO), 5 days (fraction); higher = more cells survive
NCI-H2085 = system: NCI-H2085
Method in brief: (§1)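 Relative viability was taken as the ratio of nuclei in treated wells to nuclei in vehicle wells. Lung cancer cell lines in 1536-well plates received compounds by pin tool one day after seeding, either one drug alone or a fixed anchor-drug dose plus five library-drug doses (not always all listed) in √10 steps. Nuclei were counted on 4× images after 5 days of treatment, and values are medians of duplicate plates.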

NCI-H1648 = system: NCI-H1648
Method in brief: as §1

NCI-H3122 = system: NCI-H3122
Method in brief: as §1

HCC-44 = system: HCC-44
Method in brief: as §1

HCC-366 = system: HCC-366
Method in brief: as §1

LOU-NH91 = system: LOU-NH91
Method in brief: as §1

LXF-289 = system: LXF-289
Method in brief: as §1

NCI-H1623 = system: NCI-H1623
Method in brief: as §1

NCI-H1437 = system: NCI-H1437
Method in brief: as §1

Calu-6 = system: Calu-6
Method in brief: as §1

EBC-1 = system: EBC-1
Method in brief: as §1

NCI-H1299 = system: NCI-H1299
Method in brief: as §1

NCI-H1703 = system: NCI-H1703
Method in brief: as §1

A549 = system: A549
Method in brief: as §1

IA-LM = system: IA-LM
Method in brief: as §1

## Cc1sc2c(c1C)C(c1ccc(Cl)cc1)=N[C@@H](CC(=O)OC(C)(C)C)c1nnc(C)n1-2 [JQ1] + Cc1cc(Nc2cc(N3CCN(C)CC3)nc(Sc3ccc(NC(=O)C4CC4)cc3)n2)n[nH]1 [Tozasertib] (partner 0.1 µM)
NCI-H2085; first compound 0.04 µM
  relative viability: 0.761
NCI-H2085; first compound 0.1265 µM
  relative viability: 0.727
NCI-H2085; first compound 0.4 µM
  relative viability: 0.63
NCI-H2085; first compound 1.265 µM
  relative viability: 0.414
NCI-H2085; first compound 4 µM
  relative viability: 0.328
NCI-H1648; first compound 0.04 µM
  relative viability: 0.495
NCI-H1648; first compound 0.1265 µM
  relative viability: 0.516
NCI-H1648; first compound 0.4 µM
  relative viability: 0.243
NCI-H1648; first compound 1.265 µM
  relative viability: 0.153
NCI-H1648; first compound 4 µM
  relative viability: 0.137
NCI-H3122; first compound 0.04 µM
  relative viability: 0.353
NCI-H3122; first compound 0.4 µM
  relative viability: 0.189
NCI-H3122; first compound 1.265 µM
  relative viability: 0.0696
NCI-H3122; first compound 4 µM
  relative viability: 0.0737
HCC-44; first compound 0.04 µM
  relative viability: 0.888
HCC-44; first compound 0.1265 µM
  relative viability: 0.345
HCC-44; first compound 0.4 µM
  relative viability: 0.326
HCC-44; first compound 1.265 µM
  relative viability: 0.286
HCC-44; first compound 4 µM
  relative viability: 0.136
HCC-366; first compound 0.04 µM
  relative viability: 0.112
HCC-366; first compound 0.4 µM
  relative viability: 0.0922
HCC-366; first compound 1.265 µM
  relative viability: 0.0515
HCC-366; first compound 4 µM
  relative viability: 0.0708
LOU-NH91; first compound 0.04 µM
  relative viability: 0.653
LOU-NH91; first compound 0.1265 µM
  relative viability: 0.453
LOU-NH91; first compound 0.4 µM
  relative viability: 0.255
LOU-NH91; first compound 1.265 µM
  relative viability: 0.359
LOU-NH91; first compound 4 µM
  relative viability: 0.299
LXF-289; first compound 0.04 µM
  relative viability: 0.171
LXF-289; first compound 0.1265 µM
  relative viability: 0.134
LXF-289; first compound 0.4 µM
  relative viability: 0.0871
LXF-289; first compound 1.265 µM
  relative viability: 0.0699
LXF-289; first compound 4 µM
  relative viability: 0.0528
NCI-H1623; first compound 0.04 µM
  relative viability: 0.493
NCI-H1623; first compound 0.1265 µM
  relative viability: 0.367
NCI-H1623; first compound 0.4 µM
  relative viability: 0.404
NCI-H1623; first compound 1.265 µM
  relative viability: 0.375
NCI-H1623; first compound 4 µM
  relative viability: 0.335
NCI-H1437; first compound 0.04 µM
  relative viability: 0.421
NCI-H1437; first compound 0.1265 µM
  relative viability: 0.357
NCI-H1437; first compound 0.4 µM
  relative viability: 0.357
NCI-H1437; first compound 1.265 µM
  relative viability: 0.224
NCI-H1437; first compound 4 µM
  relative viability: 0.174

## COc1cc2nccc(Oc3ccc(NC(=O)Nc4cc(C)on4)c(Cl)c3)c2cc1OC [Tivozanib] + COc1cc2c(Oc3ccc(NC(=O)C4(C(=O)Nc5ccc(F)cc5)CC4)cc3F)ccnc2cc1OCCCN1CCOCC1 [Foretinib] (partner 0.25 µM)
Calu-6; first compound 0.005 µM
  relative viability: 0.896
Calu-6; first compound 0.01581 µM
  relative viability: 0.845
Calu-6; first compound 0.05 µM
  relative viability: 0.929
Calu-6; first compound 0.1581 µM
  relative viability: 0.824
Calu-6; first compound 0.5 µM
  relative viability: 0.876
EBC-1; first compound 0.005 µM
  relative viability: 0.103
EBC-1; first compound 0.01581 µM
  relative viability: 0.104
EBC-1; first compound 0.05 µM
  relative viability: 0.11
EBC-1; first compound 0.1581 µM
  relative viability: 0.0953
EBC-1; first compound 0.5 µM
  relative viability: 0.0941
NCI-H2085; first compound 0.005 µM
  relative viability: 0.883
NCI-H2085; first compound 0.01581 µM
  relative viability: 0.884
NCI-H2085; first compound 0.05 µM
  relative viability: 0.831
NCI-H2085; first compound 0.1581 µM
  relative viability: 1.02
NCI-H2085; first compound 0.5 µM
  relative viability: 1.01
NCI-H3122; first compound 0.005 µM
  relative viability: 0.913
NCI-H3122; first compound 0.01581 µM
  relative viability: 0.962
NCI-H3122; first compound 0.05 µM
  relative viability: 0.92
NCI-H3122; first compound 0.1581 µM
  relative viability: 1.05
NCI-H3122; first compound 0.5 µM
  relative viability: 0.953
NCI-H1299; first compound 0.005 µM
  relative viability: 1.05
NCI-H1299; first compound 0.01581 µM
  relative viability: 1.09
NCI-H1299; first compound 0.05 µM
  relative viability: 1.11
NCI-H1299; first compound 0.1581 µM
  relative viability: 1.18
NCI-H1299; first compound 0.5 µM
  relative viability: 1.04
HCC-366; first compound 0.005 µM
  relative viability: 0.934
HCC-366; first compound 0.01581 µM
  relative viability: 0.932
HCC-366; first compound 0.05 µM
  relative viability: 0.9
HCC-366; first compound 0.1581 µM
  relative viability: 0.969
HCC-366; first compound 0.5 µM
  relative viability: 0.861
NCI-H1703; first compound 0.005 µM
  relative viability: 0.335
NCI-H1703; first compound 0.01581 µM
  relative viability: 0.385
NCI-H1703; first compound 0.05 µM
  relative viability: 0.384
NCI-H1703; first compound 0.1581 µM
  relative viability: 0.33
NCI-H1703; first compound 0.5 µM
  relative viability: 0.405
LOU-NH91; first compound 0.005 µM
  relative viability: 0.874
LOU-NH91; first compound 0.01581 µM
  relative viability: 0.974
LOU-NH91; first compound 0.05 µM
  relative viability: 0.993
LOU-NH91; first compound 0.1581 µM
  relative viability: 0.982
LOU-NH91; first compound 0.5 µM
  relative viability: 0.962
LXF-289; first compound 0.005 µM
  relative viability: 0.945
LXF-289; first compound 0.01581 µM
  relative viability: 0.933
LXF-289; first compound 0.05 µM
  relative viability: 0.999
LXF-289; first compound 0.1581 µM
  relative viability: 0.986
LXF-289; first compound 0.5 µM
  relative viability: 0.963
A549; first compound 0.005 µM
  relative viability: 0.804
A549; first compound 0.01581 µM
  relative viability: 0.987
A549; first compound 0.05 µM
  relative viability: 1.01
A549; first compound 0.1581 µM
  relative viability: 0.976
A549; first compound 0.5 µM
  relative viability: 1.04
NCI-H1623; first compound 0.005 µM
  relative viability: 0.821
NCI-H1623; first compound 0.01581 µM
  relative viability: 0.989
NCI-H1623; first compound 0.05 µM
  relative viability: 0.938
NCI-H1623; first compound 0.1581 µM
  relative viability: 0.888
NCI-H1623; first compound 0.5 µM
  relative viability: 0.914
IA-LM; first compound 0.005 µM
  relative viability: 1.21
IA-LM; first compound 0.01581 µM
  relative viability: 1.15
IA-LM; first compound 0.05 µM
  relative viability: 1.24
IA-LM; first compound 0.1581 µM
  relative viability: 1.32
IA-LM; first compound 0.5 µM
  relative viability: 0.94
NCI-H1437; first compound 0.005 µM
  relative viability: 1.1
NCI-H1437; first compound 0.01581 µM
  relative viability: 1.22
NCI-H1437; first compound 0.05 µM
  relative viability: 1.18
NCI-H1437; first compound 0.1581 µM
  relative viability: 1.24
NCI-H1437; first compound 0.5 µM
  relative viability: 1.25
